From US7547690B2, “Compounds for the treatment of Hepatitis C” (Bristol-Myers Squibb Company, priority 2007, dated 2009) come the findings set out here.

Like-named read-outs stand apart in the source and are kept apart here. Some results are limits rather than exact numbers.

The target of experiment [1] is T1, HCV NS5B (Hepatitis C virus genotype 1b, UniProt Q9WMX2).
T1 construct: The protein was expressed with an 18 amino acid C-terminal truncation to enhance the solubility; made in house; host or cells: E. coli BL21(DE3)
The experiment is described as follows: HCV NS5B RdRp enzyme assay (standard / modified). Type of experiment: biochemical. The following applies: standard or modified assay not specified. How it is done:
HCV NS5B RdRp cloning, expression, and purification. The cDNA encoding the NS5B protein of HCV, genotype 1b, was cloned into the pET21a expression vector. The protein was expressed with an 18 amino acid C-terminal truncation to enhance the solubility. The E. coli competent cell line BL21(DE3) was used for expression of the protein. Cultures were grown at 37° C. for ˜4 hours until the cultures reached an optical density of 2.0 at 600 nm. The cultures were cooled to 20° C. and induced with 1 mM IPTG. Fresh ampicillin was added to a final concentration of 50 μg/ml and the cells were grown overnight at 20° C.
Cell pellets (3 L) were lysed for purification to yield 15-24 mgs of purified NS5B. The lysis buffer consisted of 20 mM Tris-HCl, pH 7.4, 500 mM NaCl, 0.5% triton X-100, 1 mM DTT, 1 mM EDTA, 20% glycerol, 0.5 mg/ml lysozyme, 10 mM MgCl2, 15 ug/ml deoxyribonuclease I, and Complete TM protease inhibitor tablets (Roche). After addition of the lysis buffer, frozen cell pellets were resuspended using a tissue homogenizer. To reduce the viscosity of the sample, aliquots of the lysate were sonicated on ice using a microtip attached to a Branson sonicator. The sonicated lysate was centrifuged at 100,000×g for 1 hr at 4° C. and filtered through a 0.2 μm filter unit (Corning).
The protein was purified using two sequential chromatography steps: Heparin sepharose CL-6B and polyU sepharose 4B (Pharmacia). The chromatography buffers were identical to the lysis buffer but contained no lysozyme, deoxyribonuclease I, MgCl2 or protease inhibitor and the NaCl concentration of the buffer was adjusted according to the requirements for charging the protein onto the column. Each column was eluted with a NaCl gradient which varied in length from 5-50 column volumes depending on the column type. After the final chromatography step, the resulting purity of the enzyme is >90% based on SDS-PAGE analysis. The enzyme was aliquoted and stored at −80° C.
Standard HCV NS5B RdRp enzyme assay. HCV RdRp genotype 1b assays were run in a final volume of 60 μl in 96 well plates (Corning 3600). The assay buffer is composed of 20 mM Hepes, pH 7.5, 2.5 mM KCl, 2.5 mM MgCl2, 1 mM DTT, 1.6 U RNAse inhibitor (Promega N2515), 0.01 mg/ml BSA (Sigma B6917), and 2% glycerol. All compounds were serially diluted (3-fold) in DMSO and diluted further in water such that the final concentration of DMSO in the assay was 2%. HCV RdRp genotype 1b enzyme was used at a final concentration of 28 nM. A polyA template was used at 6 nM, and a biotinylated oligo-dT12 primer was used at 180 nM final concentration. Template was obtained commercially (Amersham 27-4110). Biotinylated primer was prepared by Sigma Genosys. 3H-UTP was used at 0.6 μCi (0.29 μM total UTP). Reactions were initiated by the addition of enzyme, incubated at 30 ° C. for 60 min, and stopped by adding 25 μl of 50 mM EDTA containing SPA beads (4 μg/μl, Amersham RPNQ 0007). Plates were read on a Packard Top Count NXT after >1 hr incubation at room temperature.
Modified HCV NS5B RdRp enzyme assay. A modified enzyme assay was performed essentially as described for the standard enzyme assay except for the following: The biotinylated oligo dT12 primer was precaptured on streptavidin-coated SPA beads by mixing primer and beads in assay buffer and incubating at room temperature for one hour. Unbound primer was removed after centrifugation. The primer-bound beads were resuspended in 20 mM Hepes buffer, pH 7.5 and used in the assay at final concentrations of 20 nM primer and 0.67 μg/μl beads. Order of addition in the assay: enzyme (1.75 nM) was added to diluted compound followed by the addition of a mixture of template (0.36 nM), 3H-UTP (0.6 μCi, 0.29 μM), and primer-bound beads, to initiate the reaction; concentrations given are final. Reactions were allowed to proceed for 4 hours at 30° C.
IC50 values for compounds were determined using seven different [I]. […]

Experiment [2] has as its system HCV replicon cells. As to the kind of experiment: HCV replicon FRET / luciferase assay. Type of experiment: cell-based. The method, then: FRET Assay Preparation. The HCV FRET screening assay was performed in 96-well cell culture plates. The FRET peptide (Anaspec, Inc.) (Taliani et al., Anal. Biochem. 1996, 240, 60-67) contains a fluorescence donor, EDANS, near one end of the peptide and an acceptor, DABCYL, near the other end. The fluorescence of the peptide is quenched by […] resonance energy transfer (RET) between the donor and the acceptor, but as the NS3 protease cleaves the peptide the products are released from RET quenching and the fluorescence of the donor becomes apparent. The assay reagent was made as follows: 5× cell Luciferase cell culture lysis reagent from Promega (#E153A) diluted to 1× with dH2O, NaCl added to 150 mM final, the FRET peptide diluted to 20 μM final from a 2 mM stock.
To prepare plates, HCV replicon cells, with or without a Renilla luciferase reporter gene, were trypsinized and plated in a 96-well plate with titrated test compounds added in columns 3 through 12; columns 1 and 2 contained a control compound (HCV control inhibitor), and the bottom row contained cells with DMSO only. The plates were then placed in a CO2 incubator at 37° C.
Assays. Subsequent to addition of the test compounds described above (FRET Assay Preparation), at various times the plate was removed and Alamar blue solution (Trek Diagnostics, #00-100) was added to measure cellular toxicity. After reading in a Cytoflour 4000 instrument (PE Biosystems), plates were rinsed with PBS and then used for FRET assay by the addition of 30 ul of the FRET peptide assay reagent described above (FRET Assay Preparation) per well. The plate was then placed into the Cytoflour 4000 instrument which had been set to 340 excite/490 emission, automatic mode for up to 20 cycles and the plate read in a kinetic mode. Typically, the signal to noise using an endpoint analysis after the reads was at least three-fold. Alternatively, after Alamar blue reading, plates were rinsed with PBS, then used for luciferase assay using the Promega Dual-Glo Luciferase Assay System or the Promega EnduRen Live Cell Substrate assay.
Compound analysis was performed by quantification of the relative HCV replicon inhibition and the relative cytotoxicity values. To calculate cytoxicity values, the average Alamar Blue fluorescence signals from the control wells were set as 100% non-toxic. The individual signals in each of the compound test wells were then divided by the average control signal and multiplied by 100% to determine […]. To calculate the HCV replicon inhibition values, an average background value was obtained from the two wells containing the highest amount of HCV control inhibitor at the end of the assay period. These numbers were similar to those obtained from naïve Huh-7 cells. The background numbers were then subtracted from the average signal obtained from the control wells and this number was used as 100% activity. The individual signals in each of the compound test wells were then divided by the averaged control values after background subtraction and multiplied by 100% to determine percent activity. EC50 values were calculated as the concentration which caused a 50% reduction in FRET or luciferase activity. The two numbers generated for the compound plate, percent cytoxicity and percent activity, were used to determine compounds of interest for further analysis.

The mark [3] stands for this setting: HCV RdRp genotype 1b, read-out: IC50.
[4] abbreviates: Hepatitis C virus, 50% reduction in FRET or luciferase activity in HCV replicon cells, read-out: EC50.
[5] abbreviates: 50% reduction in FRET or luciferase activity in HCV replicon cells, read-out: EC50.

T1 sequence (Q9WMX2 2420-2992): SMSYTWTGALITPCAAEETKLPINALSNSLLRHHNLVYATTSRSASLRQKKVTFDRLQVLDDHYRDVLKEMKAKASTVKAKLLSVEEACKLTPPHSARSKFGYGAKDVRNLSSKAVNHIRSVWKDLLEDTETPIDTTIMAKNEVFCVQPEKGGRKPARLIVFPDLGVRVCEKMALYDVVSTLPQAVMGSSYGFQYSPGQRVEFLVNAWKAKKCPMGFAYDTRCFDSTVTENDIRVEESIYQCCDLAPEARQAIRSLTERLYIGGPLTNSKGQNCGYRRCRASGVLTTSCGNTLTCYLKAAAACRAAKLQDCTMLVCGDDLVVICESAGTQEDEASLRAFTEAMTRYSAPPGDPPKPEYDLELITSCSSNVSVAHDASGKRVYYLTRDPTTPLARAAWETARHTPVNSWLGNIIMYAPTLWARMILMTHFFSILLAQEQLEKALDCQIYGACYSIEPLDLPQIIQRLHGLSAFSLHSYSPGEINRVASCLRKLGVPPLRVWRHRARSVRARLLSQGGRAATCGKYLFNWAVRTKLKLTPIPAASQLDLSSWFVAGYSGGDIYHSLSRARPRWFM

As for `CCC(C)S(=O)(=O)NC(=O)c1ccc2c(C3CCCCC3)c3n(c2c1)CC1(C(=O)N2C4COCC2COC4)CC1c1cc(OC)ccc1-3` (centres unmarked), the IC50 in experiment [1] (setting [3]) fell in the range of 2.4 to 500 nM. In addition, the EC50 in experiment [2] (setting [4]) fell in the range of 2.4 to 500 nM.
With `COc1ccc2c(c1)C1CC1(C(=O)N1C3CC1CN(Cc1ccccc1)C3)Cn1c-2c(C2CCCCC2)c2ccc(C(=O)NS(=O)(=O)C3CCC3)cc21` (centres unmarked), the IC50 in experiment [1] (setting [3]) lay within 2.4 to 500 nM. The EC50 in experiment [2] (setting [4]) lay within 500 to 5000 nM.
On the same counts, the results for `COc1ccc2c(c1)C1CC1(C(=O)N1C3CC1CN(C)C3)Cn1c-2c(C2CCCCC2)c2ccc(C(=O)NS(=O)(=O)C(C)C)cc21` (centres unmarked) are 2.4 to 500 nM and 2.4 to 500 nM.
For the compound `COc1ccc2c(c1)C1CC1(C(=O)N1CC3CCC1CN3)Cn1c-2c(C2CCCCC2)c2ccc(C(=O)NS(=O)(=O)C3CCCC3)cc21` (centres unmarked), in experiment [1] (setting [3]), the IC50 was 2.4 to 500 nM. The EC50 in experiment [2] (setting [4]) is more than 1000 nM.
For `COc1ccc2c(c1)C1CC1(C(=O)N1C3CCCC1CN(C)C3)Cn1c-2c(C2CCCCC2)c2ccc(C(=O)NS(=O)(=O)N3CCOCC3)cc21` (centres unmarked) the same measures were 2.4 to 500 nM and 2.4 to 500 nM.
As for `COc1ccc2c(c1)C1CC1(C(=O)N1C3CCCC1CN(C)C3)Cn1c-2c(C2CCCCC2)c2ccc(C(=O)NS(=O)(=O)C(C)C)cc21` (centres unmarked), the IC50 in experiment [1] (setting [3]) was 2.4 to 500 nM. Besides, the EC50 in experiment [2] (setting [4]) is 2.4 to 500 nM.
`COc1ccc2c(c1)C1CC1(C(=O)N1CC3CCC1CN3)Cn1c-2c(C2CCCCC2)c2ccc(C(=O)NS(=O)(=O)C3CCC3)cc21` (centres unmarked): in experiment [1] (setting [3]), the IC50 is 2.4 to 500 nM. Besides, the EC50 in experiment [2] (setting [4]) was 2.4 to 500 nM.
In the case of `COc1ccc2c(c1)C1CC1(C(=O)N1C3CCCC1CN(C)C3)Cn1c-2c(C2CCCCC2)c2ccc(C(=O)NS(C)(=O)=O)cc21` (centres unmarked), in experiment [1] (setting [3]), the concentration for half-maximal inhibition (IC50) lay in the range of 2.4 to 500 nM. The EC50 in experiment [2] (setting [4]) lay within 2.4 to 500 nM.
In the case of `COc1ccc2c(c1)C1CC1(C(=O)N1CC3CN(C)CC(C1)N3C(C)=O)Cn1c-2c(C2CCCCC2)c2ccc(C(=O)NS(=O)(=O)N(C)C)cc21` (centres unmarked), in experiment [1] (setting [3]), the IC50 lay in the range of 2.4 to 500 nM. In addition, in experiment [2] (setting [4]), the EC50 lay within 2.4 to 500 nM.
With `COc1ccc2c(c1)[C@@H]1C[C@]1(C(=O)N1CC3CCC1CN3C)Cn1c-2c(C2CCCCC2)c2ccc(C(=O)NS(=O)(=O)N(C)C)cc21` (some centres unmarked), the IC50 in experiment [1] (setting [3]) was in the range of 2.4 to 500 nM. For the same compound, the EC50 in experiment [2] (setting [4]) was in the range of 2.4 to 500 nM.
On to `COc1ccc2c(c1)C1CC1(C(=O)N1C3CN(C)CC1CN(C)C3)Cn1c-2c(C2CCCCC2)c2ccc(C(=O)NS(=O)(=O)N(C)C)cc21` (centres unmarked), for which the IC50 in experiment [1] (setting [3]) lay within 2.4 to 500 nM. In addition, the EC50 in experiment [2] (setting [4]) was 2.4 to 500 nM.
Consider `COc1ccc2c(c1)C1CC1(C(=O)N1C3CN(C)CC1CN(Cc1ccccc1)C3)Cn1c-2c(C2CCCCC2)c2ccc(C(=O)NS(=O)(=O)N(C)C)cc21` (centres unmarked), for which the IC50 in experiment [1] (setting [3]) lay in the range of 2.4 to 500 nM. Also, the EC50 in experiment [2] (setting [4]) lay in the range of 2.4 to 500 nM.
With `COc1ccc2c(c1)C1CC1(C(=O)N1C3CC1CN(Cc1ccccc1)C3)Cn1c-2c(C2CCCCC2)c2ccc(C(=O)NS(=O)(=O)C(C)C)cc21` (centres unmarked), in experiment [1] (setting [3]), the IC50 fell in the range of 2.4 to 500 nM. In addition, the EC50 in experiment [2] (setting [4]) was in the range of 2.4 to 500 nM.
`COc1ccc2c(c1)[C@@H]1C[C@]1(C(=O)N1C3CCC1C1CCC3N1C)Cn1c-2c(C2CCCCC2)c2ccc(C(=O)NS(=O)(=O)N(C)C)cc21` [drawing 160]: in experiment [1] (IC50, HCV RdRp genotype 1b), the IC50 fell in the range of 2.4 to 500 nM. Further, the EC50 in experiment [2] (Hepatitis C virus) fell in the range of 2.4 to 500 nM.
With `COc1ccc2c(c1)C1CC1(C(=O)N1CCN3CCC1CC3)Cn1c-2c(C2CCCCC2)c2ccc(C(=O)NS(=O)(=O)C3CC3)cc21` (centres unmarked) [drawing 71], in experiment [1] (setting [3]), the IC50 lay within 2.4 to 500 nM. The EC50 in experiment [2] (setting [5]) fell in the range of 2.4 to 500 nM.
`COc1ccc2c(c1)C1CC1(C(=O)N1C3CC1CN(C)C3)Cn1c-2c(C2CCCCC2)c2ccc(C(=O)NS(=O)(=O)N3CCN(C)CC3)cc21` (centres unmarked): the IC50 in experiment [1] (setting [3]) lay within 2.4 to 500 nM. For the same compound, the EC50 in experiment [2] (setting [4]) fell in the range of 2.4 to 500 nM.
In the case of `COc1ccc2c(c1)C1CC1(C(=O)N1CCN3CCC1CC3)Cn1c-2c(C2CCCCC2)c2ccc(C(=O)NS(=O)(=O)N3CCC3)cc21` (centres unmarked), the IC50 in experiment [1] (setting [3]) was 2.4 to 500 nM. Besides, the EC50 in experiment [2] (setting [4]) lay in the range of 2.4 to 500 nM.
For `COc1ccc2c(c1)C1CC1(C(=O)N1C[C@@H]3C[C@H]1CN3C)Cn1c-2c(C2CCCCC2)c2ccc(C(=O)NS(=O)(=O)C3CC3)cc21` (some centres unmarked) [drawing 51], the IC50 in experiment [1] (setting [3]) lay in the range of 2.4 to 500 nM. In addition, in experiment [2] (setting [5]), the EC50 was more than 500 nM.
Regarding `COc1ccc2c(c1)C1CC1(C(=O)N1C3CC1CN(C)C3)Cn1c-2c(C2CCCCC2)c2ccc(C(=O)NS(=O)(=O)C(C)(C)C)cc21` (centres unmarked), the IC50 in experiment [1] (setting [3]) fell in the range of 2.4 to 500 nM. For the same compound, in experiment [2] (setting [4]), the EC50 lay within 2.4 to 500 nM.
